Test results taken from patent publication US20250296938A1, “Compounds that Interact with the Ras Superfamily for the Treatment of Cancers, Inflammatory Diseases, Rasopathies, and Fibrotic Disease” (SHY Therapeutics, LLC, priority 2018, published 2025).

How the values were obtained:
MAPK phosphorylation = test: MAPK cell-based phosphorylation assay (ELISA or Western), PANC-1; conditions: Homo sapiens, 10 μM
Experimental: Cell lines: Tumor-derived pancreatic cancer cell line PANC-1 was purchased from ATCC and were and grown in DMEM-High Glucose supplemented with penicillin (100 U/mL), streptomycin (100 μg/mL), and 10% heat-inactivated FBS at 37° C. in a humidified incubator with 5% CO2.
Method: Cells were plated at 7500 cells/well density in a 96-well plate, allowed 3 hours to adhere to the plate, then starved in DMEM plus 0.5% FBS overnight. The small molecules to be tested were added to the cells in the final concentration of 10 μM in the presence of 0.3% DMSO for 6 hours incubation at 37° C. For IC50 value determination, serial dilutions of compounds were added to cells under the same conditions. Next, cells were stimulated with 1.5 ng/mL EGF for 15 minutes followed by cell fixation with 4% formaldehyde in PBS at room temperature for 20 minutes. Cell-direct ELISA determined phosphorylation level of MAPK.
Cell-direct ELISA: For each well, cells were permeabilized with 0.1% PBS-Triton X-100, quenched with 0.06% H2O2 in 0.1% PBS-Triton X-100, and probed with anti-phospho-MAPK antibodies (R&D Systems) followed by HRP-conjugated secondary antibody (Jackson Immunoresearch, West Grove, PA). Next, a 50 μM solution of the fluorescent substrate AmpliFlu Red (Sigma) was added and incubated at RT for 20 minutes. At the end of the incubation time, phosphorylation level of MAPK was determined by measuring fluorescence at 595 nm using SpectraMax M3 plate reader (Molecular Devices).
Cell lines: Human NSCLC cells NCI-H1975 and NCI-H1299, and tumor-derived pancreatic cancer cell lines Panc-1, MIA-PaCa-2, and BxPC3, were all purchased from American Type Culture Collection and grown in complete RPMI medium (BxPC3, NCI-H1975 and NCI-H1299) or DMEM-High Glucose (Panc1 and MIA-PaCa-2), supplemented with penicillin (100 U/mL), streptomycin (100 μg/mL), and 10% heat-inactivated FBS at 37° C. in a humidified incubator with 5% CO2.
(§1) Method: Cells were plated at 350000 cells/well density in a 12-well plate, allowed 3 hours to adhere to the plate, then starved in the appropriate medium in the presence of 0.5% FBS overnight. The small molecules to be tested were added to the cells in the final concentration of 10 μM in the presence of 0.3% DMSO for 6 hours incubation at 37° C. For IC50 value determination, serial dilutions of compounds were added to cells under the same conditions. Next, cells were stimulated with 1.5 ng/ml EGF for 15 minutes then cells were lysed with lysis buffer containing 1% Triton X-100, EDTA, and Halt™ Protease & Phosphatase Inhibitor Cocktail (Thermo Scientific). Protein concentration was assessed by BCA protein assay (Thermo Scientific). Phosphorylation level of MAPK was determined by western blot.
(§2) Western blot protocol: Equal amounts of protein (15-50 μg) were separated by SDS-PAGE and transferred to nitrocellulose membranes (Invitrogen by Thermo Fisher Scientific). The membrane was stained with Ponceau S Stain (Boston BioProducts) to verify uniform protein loading. Membranes were blocked with 10% milk and phosphorylation levels of MAPK were assessed by incubating overnight at 4° C. with anti-phospho-p44/42 (Thr202/Tyr204) antibody (Cell Signaling) followed by HRP-conjugated secondary antibody (Jackson Immunoresearch, West Grove, PA). Bands were incubated in Amersham ECL Prime Western Blotting Detection Reagent (GE Healthcare) and visualized using the ChemiDoc MP imaging system (Bio-Rad).

AKT phosphorylation = test: Western AKT cell-based phosphorylation assay, PANC-1; conditions: Homo sapiens
Experimental: Human tumor-derived pancreatic cancer cell line Panc-1 was purchased from American Type Culture Collection and grown in complete DMEM-High Glucose supplemented with penicillin (100 U/mL), streptomycin (100 μg/mL), and 10% heat-inactivated FBS at 37° C. in a humidified incubator with 5% CO2.
as §1, with “C.” for “C. For IC50 value determination, serial dilutions of compounds were added to cells under the same conditions.”, “Akt” for “MAPK”
as §2, with “Akt” for “MAPK”, “anti-phospho-Akt (Ser473)” for “anti-phospho-p44/42 (Thr202/Tyr204)”

[1] = 6 hours, EGF stimulation, PANC-1

Structure (SMILES)	inhibition at 10 µM (MAPK phosphorylation; [1]) [%]	inhibition at 10 µM (AKT phosphorylation; [1]) [%]	inhibition at 10 µM (MAPK phosphorylation; PANC-1 (Table 4C)) [%]	inhibition at 10 µM (AKT phosphorylation; PANC-1 (Table 4C)) [%]
Cc1cn(C)c(-c2nc(O)c3scc(-c4ccccn4)c3n2)n1 [drawing 395]	0	0	–	–
COc1ccc(Oc2nc(-c3ccccn3)nc(O)c2OC)cc1 [drawing 449]	0	0	–	–
CO[C@H]1CC[C@@H](Nc2nc(-c3nccn3C)nc3sc(-c4ccn(C(C)C)n4)c(-c4ccccc4)c23)C1 [drawing 512]	–	–	76 to 100	76 to 100
CO[C@H]1CC[C@@H](Nc2nc(-c3nccn3C)nc(C(=O)N3CCc4c(O)cccc4C3)c2C)C1 [drawing 501]	–	–	26 to 50	1 to 25
CO[C@H]1C[C@H](Nc2nc(-c3nccn3C)nc3sc(-c4ccn(C)n4)c(-c4ccccc4)c23)C1 [drawing 506]	–	–	76 to 100	76 to 100
COc1ncccc1-c1sc2nc(-c3nccn3C)nc(N3CCC(OC)C3)c2c1-c1ccccc1 (centres unmarked) [drawing 431]	76 to 100	0	–	–
Cc1c(-c2ccn(C)n2)sc2nc(-c3nccn3C)nc(NCCCC(=O)N(C)C)c12 [drawing 517]	–	–	0	0
Cn1ccc(-c2sc3nc(-c4nccn4C)nc(N4CCC5(CCOC5)C4)c3c2-c2ccccc2)n1 (centres unmarked) [drawing 409]	0	0	–	–
COCCc1ccc(Oc2nc(-c3ccccn3)nc(O)c2OC)cc1 [drawing 450]	0	0	–	–
Cn1ccc(-c2sc3nc(-c4nccn4C)nc(N[C@@H]4CC[C@H](O)C4)c3c2-c2ccccc2)n1 (racemic) [drawing 509]	–	–	26 to 50	0
COCCNC(=O)c1sc2nc(-c3nccn3C)nc(N[C@@H]3CC[C@H](OC)C3)c2c1-c1ccccc1 [drawing 525]	–	–	0	0
O=C(NC1CCC1)c1nc(-c2ccccn2)nc(O)c1O [drawing 461]	0	0	–	–
COC1CCN(c2nc(-c3nccn3C)nc3sc(-c4ccnc(N(C)C)c4)c(-c4ccccc4)c23)C1 (centres unmarked) [drawing 440]	76 to 100	0	–	–
Cc1cc(Cn2ccnc2-c2nc(O)c3scc(-c4ccccn4)c3n2)on1 [drawing 391]	0	0	–	–
COc1cccc(-c2sc3nc(-c4nccn4C)nc(N4CCC(OC)C4)c3c2-c2ccccc2)c1F (centres unmarked) [drawing 490]	–	–	76 to 100	76 to 100
COc1cccc(-c2sc3nc(-c4nccn4C)nc(N[C@@H]4CC[C@H](OC)C4)c3c2-c2ccccc2)c1F [drawing 484]	–	–	76 to 100	76 to 100
COCCCNc1nc(-c2nccn2C)nc2sc(-c3ccn(C)n3)c(-c3ccccc3)c12 [drawing 400]	26 to 50	0	–	–
COC1CCN(c2nc(-c3nccn3C)nc3sc(-c4cccnc4)c(-c4ccccc4)c23)C1 (centres unmarked) [drawing 429]	51 to 75	0	–	–
COc1cccc(-c2sc3nc(C4=NC(C)=NC4C)nc(N[C@@H]4CC[C@H](OC)C4)c3c2C)c1F (some centres unmarked)	–	–	76 to 100	0
Oc1nc(-c2cn(-c3ccccc3)cn2)nc2c(-c3ccccn3)csc12 [drawing 398]	0	0	–	–

Structure (SMILES)	inhibition at 10 µM (MAPK phosphorylation; [1]) [%]	inhibition at 10 µM (AKT phosphorylation; [1]) [%]	inhibition at 10 µM (MAPK phosphorylation; PANC-1 (Table 4C)) [%]	inhibition at 10 µM (AKT phosphorylation; PANC-1 (Table 4C)) [%]
O=C(c1nc(-c2ccccn2)nc(O)c1O)N1CCOCC1 [drawing 453]	0	0	–	–
COc1c(O)nc(-c2ccccn2)nc1Oc1cccnc1 [drawing 447]	0	0	–	–
COc1c(O)nc(-c2ccccn2)nc1Oc1cnn(C)c1 [drawing 445]	1 to 25	0	–	–
CO[C@H]1C[C@@H](Nc2nc(-c3ccccn3)nc3sccc23)C1 [drawing 502]	–	–	1 to 25	0
COC1CCC(Nc2nc(-c3nccn3C)nc3sc(-c4cccc(O)c4F)c(-c4ccccc4)c23)C1 (centres unmarked) [drawing 485]	–	–	76 to 100	0
CN(C)CCOCCNc1nc(-c2nccn2C)nc2sc(-c3ccn(C)n3)c(-c3ccccc3)c12 [drawing 507]	–	–	0	0
Cn1ccnc1-c1nc(O)c2scc(-c3ccccn3)c2n1 [drawing 387]	0	0	–	–
COc1ccc(-c2sc3nc(-c4nccn4C)nc(N4CCC(OC)C4)c3c2-c2ccccc2)cn1 (centres unmarked) [drawing 430]	1 to 25	0	–	–
COC1CCN(c2nc(-c3nccn3C)nc3sc(-c4ccccc4CO)c(-c4ccccc4)c23)C1 (centres unmarked) [drawing 438]	0	0	–	–
COc1c(O)nc(-c2ccccn2)nc1Oc1ccc2ncccc2c1 [drawing 446]	0	0	–	–
COC1CCN(C(=O)c2sc3nc(-c4nccn4C)nc(N[C@H]4C[C@@H](OC)C4)c3c2-c2ccccc2)C1 (some centres unmarked) [drawing 523]	–	–	0	0
COc1cccc(-c2sc3nc(-c4nccn4C)nc(NC4CCC(OC)C4)c3c2C)c1F (centres unmarked) [drawing 493]	–	–	76 to 100	0
COCC1CN(c2nc(-c3nccn3C)nc3sc(-c4cccc(OC)c4F)c(-c4ccc(OC)cc4)c23)C1 [drawing 443]	76 to 100	0	–	–
COc1ccc(-c2c(-c3cccc(OC)c3F)sc3nc(-c4nccn4C)nc(N4CCC(OC)C4)c23)cc1 (centres unmarked) [drawing 442]	0	0	–	–
COC1CCN(c2nc(-c3nccn3C)nc3sc(-c4ccnn4C)c(-c4ccccc4)c23)C1 (centres unmarked) [drawing 428]	0	0	–	–
Oc1nc(-c2nccn2Cc2ccccn2)nc2c(-c3ccccn3)csc12 [drawing 392]	51 to 75	0	–	–
CO[C@H]1CC[C@@H](Nc2nc(-c3nccn3C)nc3sc(-c4cccc5[nH]ncc45)c(-c4ccccc4)c23)C1 [drawing 489]	–	–	76 to 100	0
CC(C)NC(=O)c1nc(-c2nccn2C)nc(O)c1O [drawing 462]	0	0	–	–
COc1nc(-c2ccccn2)nc2c(-c3ccccn3)csc12 [drawing 513]	–	–	0	0
Cc1cnc(-c2nc(O)c3scc(-c4ccccn4)c3n2)n1C [drawing 394]	0	0	–	–
